{"source": "EPA's ToxRefDB 2", "key": {"[1]": {"tested_on": "rat", "details": "Combined chronic toxicity/carcinogenicity, fischer, Oral, Feed, dose end: 2 year, group: systemic"}, "[2]": {"tested_on": "rat", "details": "Fertility (Segment I), fischer, Oral, Feed, dose end: 16 weeks (premating)"}, "[3]": {"tested_on": "mouse", "details": "Subchronic oral toxicity in rodents, b6c3f1, Feed, dose end: 91 day, group: systemic, systemic / in life observation / body weight / body weight gain"}, "[4]": {"tested_on": "mouse", "details": "Prenatal developmental toxicity study, cd1, Oral, Feed, dose end: 15 GD"}, "[5]": {"tested_on": "rat", "details": "Subchronic oral toxicity in rodents, fischer, Feed, dose end: 26 week, group: systemic"}, "[6]": {"tested_on": "rat", "details": "Multigenerational reproductive toxicity study, other, Oral, Gavage/Intubation, dose end: 2 generation"}, "[7]": {"tested_on": "mouse", "details": "Carcinogenicity; b6c3f1; Oral; Feed; dose end: 2 year; group: systemic; systemic / in life observation / body weight / body weight"}, "[8]": {"tested_on": "rat", "details": "Prenatal developmental toxicity study, sprague dawley, Oral, Feed, dose end: 15 GD"}, "[9]": {"tested_on": "rat", "details": "Combined chronic toxicity/carcinogenicity, fischer, Oral, Feed, dose end: 2 year, group: systemic", "remark": "listed apart in the source"}, "[10]": {"tested_on": "rat", "details": "Multigenerational reproductive toxicity study, other, Oral, Gavage/Intubation, dose end: 2 generation", "remark": "listed apart in the source"}, "[11]": {"details": "systemic / in life observation / body weight / body weight + systemic / in life observation / food consumption / food consumption + systemic…"}, "[12]": {"details": "systemic / pathology gross / full gross necropsy / leukemia mononuclear + systemic / in life observation / body weight / body weight + …"}, "[13]": {"details": "group: maternal, reproductive / reproductive performance / fertility / fertility"}, "[14]": {"details": "group: parental, systemic / hematology / erythrocyte (rbc) count differential / erythrocyte (rbc) + systemic / hematology / hemoglobin (hgb) / hemoglobin (…"}, "[15]": {"details": "group: developmental, developmental / developmental malformation / bone / exencephaly + developmental / developmental malformation / bone / [other] + …"}, "[16]": {"details": "group: maternal, reproductive / offspring survival early / litter size / litter size + reproductive / offspring survival early / live fetuses / live fetuses…"}, "[17]": {"details": "systemic / hematology / anemia / anemia - macrocytic + systemic / hematology / erythrocyte (rbc) count differential / erythrocyte (rbc) + …"}, "[18]": {"details": "group: offspring, systemic / clinical chemistry / triiodothyronine (t3) / triiodothyronine (t3), total + systemic / in life observation / body weight / …"}, "[19]": {"details": "group: parental, systemic / in life observation / clinical signs / salivation + systemic / organ weight / kidney / absolute + systemic / organ weight / …"}, "[20]": {"details": "group: reproductive, reproductive / offspring survival early / live fetuses / live fetuses"}, "[21]": {"details": "group: developmental, developmental / developmental malformation / bone / [other] + developmental / developmental malformation / bone / bipartite ossification + …"}, "[22]": {"details": "group: maternal, reproductive / reproductive performance / resorptions / resorptions + systemic / in life observation / body weight / body weight + systemic…"}, "[23]": {"details": "systemic / organ weight / kidney / relative to body weight"}, "[24]": {"details": "group: offspring, developmental / developmental landmark / anogenital distance (agd) / anogenital distance (agd)"}, "[25]": {"details": "group: reproductive, reproductive / reproductive performance / fertility / fertility"}}, "data": [{"smiles": "CCCCOC(=O)c1ccccc1C(=O)OCc1ccccc1", "note": "[Butyl benzyl phthalate]", "values": [{"measurement": "LEL", "setting": "[1]; [11]", "value": 300, "unit": "mg/kg/day"}, {"measurement": "NEL", "setting": "[1]; [11]", "value": "< 300", "unit": "mg/kg/day"}, {"measurement": "LOAEL", "setting": "[1]; [12]", "value": "> 600", "unit": "mg/kg/day"}, {"measurement": "NOAEL", "setting": "[1]; [12]", "value": "≥ 600", "unit": "mg/kg/day"}, {"measurement": "LEL", "setting": "[2]; [13]", "value": 2200, "unit": "mg/kg/day"}, {"measurement": "LOAEL", "setting": "[2]; [13]", "value": "> 2200", "unit": "mg/kg/day"}, {"measurement": "NEL", "setting": "[2]; [13]", "value": 200, "unit": "mg/kg/day"}, {"measurement": "NOAEL", "setting": "[2]; [13]", "value": "≥ 2200", "unit": "mg/kg/day"}, {"measurement": "LOAEL", "setting": "[2]; [14]", "value": "> 2200", "unit": "mg/kg/day"}, {"measurement": "NEL", "setting": "[2]; [14]", "value": 20, "unit": "mg/kg/day"}, {"measurement": "NOAEL", "setting": "[2]; [14]", "value": "≥ 2200", "unit": "mg/kg/day"}, {"measurement": "LEL", "setting": "[2]; group: parental, systemic / pathology gross / sperm measure / sperm count", "value": 200, "unit": "mg/kg/day"}, {"measurement": "LEL", "setting": "[3]", "value": 240, "unit": "mg/kg/day"}, {"measurement": "LOAEL", "setting": "[3]", "value": "> 3750", "unit": "mg/kg/day"}, {"measurement": "NEL", "setting": "[3]", "value": "< 240", "unit": "mg/kg/day"}, {"measurement": "NOAEL", "setting": "[3]", "value": "≥ 3750", "unit": "mg/kg/day"}, {"measurement": "LEL", "setting": "[4]; group: developmental, developmental / developmental malformation / bone / exencephaly", "value": 910, "unit": "mg/kg/day"}, {"measurement": "LOAEL", "setting": "[4]; [15]", "value": "> 2330", "unit": "mg/kg/day"}, {"measurement": "NEL", "setting": "[4]; [15]", "value": 182, "unit": "mg/kg/day"}, {"measurement": "NOAEL", "setting": "[4]; [15]", "value": "≥ 2330", "unit": "mg/kg/day"}, {"measurement": "LEL", "setting": "[4]; group: maternal, reproductive / offspring survival early / litter size / litter size + reproductive / offspring survival early / live fetuses / live fetuses", "value": 910, "unit": "mg/kg/day"}, {"measurement": "LOAEL", "setting": "[4]; [16]", "value": "> 2330", "unit": "mg/kg/day"}, {"measurement": "NEL", "setting": "[4]; [16]", "value": 182, "unit": "mg/kg/day"}, {"measurement": "NOAEL", "setting": "[4]; [16]", "value": "≥ 2330", "unit": "mg/kg/day"}, {"measurement": "LOAEL", "setting": "[5]; [17]", "value": 1250, "unit": "mg/kg/day"}, {"measurement": "NEL", "setting": "[5]; [17]", "value": 60, "unit": "mg/kg/day"}, {"measurement": "NOAEL", "setting": "[5]; [17]", "value": 550, "unit": "mg/kg/day"}, {"measurement": "LEL", "setting": "[5]; systemic / hematology / erythrocyte (rbc) count differential / erythrocyte (rbc)", "value": 180, "unit": "mg/kg/day"}, {"measurement": "LEL", "setting": "[6]; [18]", "value": 100, "unit": "mg/kg/day"}, {"measurement": "LOAEL", "setting": "[6]; [18]", "value": "> 500", "unit": "mg/kg/day"}, {"measurement": "NEL", "setting": "[6]; [18]", "value": 20, "unit": "mg/kg/day"}, {"measurement": "NOAEL", "setting": "[6]; [18]", "value": "≥ 500", "unit": "mg/kg/day"}, {"measurement": "LEL", "setting": "[6]; [19]", "value": 100, "unit": "mg/kg/day"}, {"measurement": "LOAEL", "setting": "[6]; [19]", "value": "> 500", "unit": "mg/kg/day"}, {"measurement": "NEL", "setting": "[6]; [19]", "value": 20, "unit": "mg/kg/day"}, {"measurement": "NOAEL", "setting": "[6]; [19]", "value": "≥ 500", "unit": "mg/kg/day"}, {"measurement": "LEL", "setting": "[6]; [20]", "value": 500, "unit": "mg/kg/day"}, {"measurement": "LOAEL", "setting": "[6]; [20]", "value": "> 500", "unit": "mg/kg/day"}, {"measurement": "NEL", "setting": "[6]; [20]", "value": 100, "unit": "mg/kg/day"}, {"measurement": "NOAEL", "setting": "[6]; [20]", "value": "≥ 500", "unit": "mg/kg/day"}, {"measurement": "LEL", "setting": "[7]", "value": 900, "unit": "mg/kg/day"}, {"measurement": "LOAEL", "setting": "[7]", "value": 900, "unit": "mg/kg/day"}, {"measurement": "NEL", "setting": "[7]", "value": "< 900", "unit": "mg/kg/day"}, {"measurement": "NOAEL", "setting": "[7]", "value": "< 900", "unit": "mg/kg/day"}, {"measurement": "LOAEL", "setting": "[8]; [21]", "value": "> 1640", "unit": "mg/kg/day"}, {"measurement": "NEL", "setting": "[8]; [21]", "value": 420, "unit": "mg/kg/day"}, {"measurement": "NOAEL", "setting": "[8]; [21]", "value": "≥ 1640", "unit": "mg/kg/day"}, {"measurement": "LEL", "setting": "[8]; group: developmental, developmental / developmental malformation / bone / short supernumerary", "value": 1100, "unit": "mg/kg/day"}, {"measurement": "LOAEL", "setting": "[8]; [22]", "value": "> 1640", "unit": "mg/kg/day"}, {"measurement": "NEL", "setting": "[8]; [22]", "value": 420, "unit": "mg/kg/day"}, {"measurement": "NOAEL", "setting": "[8]; [22]", "value": "≥ 1640", "unit": "mg/kg/day"}, {"measurement": "LEL", "setting": "[8]; group: maternal, systemic / in life observation / body weight / body weight + systemic / in life observation / body weight / body weight gain + systemic / in…", "value": 1100, "unit": "mg/kg/day"}, {"measurement": "LOAEL", "setting": "[9]; systemic / in life observation / body weight / body weight + systemic / pathology microscopic / pancreas / hyperplasia", "value": 500, "unit": "mg/kg/day"}, {"measurement": "NOAEL", "setting": "[9]; systemic / in life observation / body weight / body weight + systemic / pathology microscopic / pancreas / hyperplasia + systemic / …", "value": 240, "unit": "mg/kg/day"}, {"measurement": "LEL", "setting": "[9]; [23]", "value": 120, "unit": "mg/kg/day"}, {"measurement": "NEL", "setting": "[9]; [23]", "value": "< 120", "unit": "mg/kg/day"}, {"measurement": "LEL", "setting": "[10]; [24]", "value": 100, "unit": "mg/kg/day"}, {"measurement": "LOAEL", "setting": "[10]; [24]", "value": 100, "unit": "mg/kg/day"}, {"measurement": "NEL", "setting": "[10]; [24]", "value": "< 100", "unit": "mg/kg/day"}, {"measurement": "NOAEL", "setting": "[10]; [24]", "value": "< 100", "unit": "mg/kg/day"}, {"measurement": "LEL", "setting": "[10]; group: parental, systemic / in life observation / clinical signs / salivation + systemic / organ weight / kidney / absolute + systemic / organ weight / liver…", "value": 200, "unit": "mg/kg/day"}, {"measurement": "LOAEL", "setting": "[10]; [19]", "value": "> 400", "unit": "mg/kg/day"}, {"measurement": "NEL", "setting": "[10]; [19]", "value": 100, "unit": "mg/kg/day"}, {"measurement": "NOAEL", "setting": "[10]; [19]", "value": "≥ 400", "unit": "mg/kg/day"}, {"measurement": "LEL", "setting": "[10]; [25]", "value": 400, "unit": "mg/kg/day"}, {"measurement": "LOAEL", "setting": "[10]; [25]", "value": "> 400", "unit": "mg/kg/day"}, {"measurement": "NEL", "setting": "[10]; [25]", "value": 200, "unit": "mg/kg/day"}, {"measurement": "NOAEL", "setting": "[10]; [25]", "value": "≥ 400", "unit": "mg/kg/day"}]}]}
